The text below walks through data of ChEMBL document CHEMBL1135269, “Benzoindoloquinolines interact with DNA tetraplexes and inhibit telomerase” (Bioorg Med Chem Lett, 2002).

As a reminder, the IC50 is the concentration that gives 50% inhibition. Read a low IC50 as inhibition by little substance.

The structures appear in SMILES notation. Where only a bound is given, the exact number is not on record here.

Assay [1] has as its target Telomerase reverse transcriptase (Homo sapiens, UniProt O14746). As to the kind of experiment: Tested for inhibitory activity against Telomerase in telomerase repeat amplification protocol (TRAP) assay.
The target of assay [2] is DNA polymerase I, thermostable (Thermus aquaticus, UniProt P19821). In words: Tested for inhibitory activity against Taq DNA polymerase.
Sequence of DNA polymerase I, thermostable (P19821 whole entry): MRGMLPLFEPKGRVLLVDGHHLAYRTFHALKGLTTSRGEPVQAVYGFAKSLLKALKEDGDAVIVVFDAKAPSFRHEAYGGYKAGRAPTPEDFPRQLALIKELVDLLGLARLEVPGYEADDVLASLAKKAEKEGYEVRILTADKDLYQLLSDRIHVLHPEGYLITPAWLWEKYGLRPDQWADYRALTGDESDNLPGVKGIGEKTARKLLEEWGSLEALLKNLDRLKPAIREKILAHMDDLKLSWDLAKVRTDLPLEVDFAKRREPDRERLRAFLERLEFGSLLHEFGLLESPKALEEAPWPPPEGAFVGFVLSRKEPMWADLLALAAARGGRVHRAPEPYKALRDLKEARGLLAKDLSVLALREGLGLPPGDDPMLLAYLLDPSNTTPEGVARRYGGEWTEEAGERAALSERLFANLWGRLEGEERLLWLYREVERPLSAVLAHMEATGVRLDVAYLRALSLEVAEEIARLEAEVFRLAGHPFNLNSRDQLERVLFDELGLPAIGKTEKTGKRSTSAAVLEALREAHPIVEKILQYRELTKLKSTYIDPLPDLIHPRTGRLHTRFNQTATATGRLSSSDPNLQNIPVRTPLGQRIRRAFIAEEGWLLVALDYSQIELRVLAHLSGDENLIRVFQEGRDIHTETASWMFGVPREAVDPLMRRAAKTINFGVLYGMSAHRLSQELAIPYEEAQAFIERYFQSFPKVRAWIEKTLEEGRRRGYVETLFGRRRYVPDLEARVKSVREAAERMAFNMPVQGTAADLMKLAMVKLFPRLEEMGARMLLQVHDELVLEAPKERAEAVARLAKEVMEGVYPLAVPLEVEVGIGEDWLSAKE

Sequence of Telomerase reverse transcriptase (O14746 whole entry): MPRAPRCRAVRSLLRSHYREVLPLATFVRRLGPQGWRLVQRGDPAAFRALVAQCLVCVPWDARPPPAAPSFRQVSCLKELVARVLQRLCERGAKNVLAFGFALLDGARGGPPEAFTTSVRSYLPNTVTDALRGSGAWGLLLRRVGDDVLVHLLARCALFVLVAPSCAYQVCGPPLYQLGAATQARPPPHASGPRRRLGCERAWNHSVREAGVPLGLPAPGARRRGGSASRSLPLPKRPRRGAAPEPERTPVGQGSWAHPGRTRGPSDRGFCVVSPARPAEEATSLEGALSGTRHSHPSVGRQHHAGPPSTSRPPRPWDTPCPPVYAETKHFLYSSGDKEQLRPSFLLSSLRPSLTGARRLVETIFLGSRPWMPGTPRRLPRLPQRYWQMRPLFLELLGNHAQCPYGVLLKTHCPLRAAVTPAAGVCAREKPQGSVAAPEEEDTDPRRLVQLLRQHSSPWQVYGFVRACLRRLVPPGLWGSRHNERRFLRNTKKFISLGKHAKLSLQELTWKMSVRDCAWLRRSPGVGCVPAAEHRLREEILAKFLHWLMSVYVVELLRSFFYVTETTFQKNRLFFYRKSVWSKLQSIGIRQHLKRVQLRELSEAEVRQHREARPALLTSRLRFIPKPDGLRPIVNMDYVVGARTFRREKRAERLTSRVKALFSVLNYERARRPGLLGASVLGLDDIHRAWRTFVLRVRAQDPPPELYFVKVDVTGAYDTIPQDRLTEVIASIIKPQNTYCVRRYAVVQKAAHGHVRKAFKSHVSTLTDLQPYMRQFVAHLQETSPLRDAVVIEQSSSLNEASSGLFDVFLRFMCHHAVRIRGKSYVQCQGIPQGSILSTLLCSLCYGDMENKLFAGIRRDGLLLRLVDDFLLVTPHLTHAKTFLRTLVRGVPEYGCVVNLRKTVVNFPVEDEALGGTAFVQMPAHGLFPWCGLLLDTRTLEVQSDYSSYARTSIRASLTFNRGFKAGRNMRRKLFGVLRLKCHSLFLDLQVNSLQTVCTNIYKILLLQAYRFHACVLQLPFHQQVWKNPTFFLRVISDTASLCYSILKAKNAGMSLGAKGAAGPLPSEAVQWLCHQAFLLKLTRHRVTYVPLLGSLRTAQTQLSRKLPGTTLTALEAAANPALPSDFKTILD

As to `COc1ccc2ccc3c([nH]c4c5ccccc5nc(NCCN(C)C)c34)c2c1`, the half-inhibitory concentration (IC50) was 9800 nM in assay [1] and > 10000 nM in assay [2].

Turning to `CN(C)CCCNc1nc2ccccc2c2[nH]c3c4cc([N+](=O)[O-])ccc4ccc3c12`, the half-maximal inhibitory concentration (IC50) is 500 nM in assay [1] and 5000 nM in assay [2].

Consider `COc1ccc2c(ccc3c2[nH]c2c4ccccc4nc(NCCCN(C)C)c32)c1`, for which the IC50 in assay [1] came to 1000 nM; in assay [2], 900 nM.

Turning to `COc1ccc2ccc3c([nH]c4c5ccccc5nc(NCCCN(C)C)c34)c2c1`, the IC50 in assay [1] was 1100 nM; in assay [2] it was 2200 nM.
